Legend:
Two-spotted spider mite [1] = experiment: Initial contact activity, leaf dip, two-spotted spider mite; type: in vivo, Tetranychus urticae Koch; settings: Tetranychus urticae, foliar, 48 h, initial, SM, 48 hours, read-out: Percent Kill
Confused flour beetle = experiment: Residual (7-day) contact activity, confused flour beetle; type: in vivo, Tribolium confusum duVal; settings: Tribolium confusum, 168 h, residual 7-day, FB, read-out: Percent Kill
Protocol: Initial Contact Activity: One half gram of test compound was dissolved in 40 ml of acetone and this solution was dispersed in 360 ml of water containing one drop of isooctylphenyl polyethoxyethanol. Aliquots of this solution, which corresponds to 1250 ppm of active ingredient, were diluted with an appropriate amount of water to provide solutions containing various concentrations of active ingredient. Test organisms and techniques were as follows: The activity against the Mexican bean beetle (Epilachna varivestis Muls.) and the southern armyworm (Spodoptera eridania [Cram.]) was evaluated by dipping the leaves of pinto bean plants into the test solution and infesting the leaves with the appropriate immature-form insects when the foiliage had dried; the activity against the pea aphid (Acyrthosiphon pisum [Harris]) was evaluated on broad bean plants whose leaves were dipped before infestation with adult aphids; the activity against two-sotted spider mites (Tetranychus urticae Koch) was evaluated on pinto bean plants whose leaves were dipped after infestation with adult mites; the activity against the milkweed bug (Oncopeltus fasciatus [Dallas]), and the plum curculio (Conotrachelus nenuphar [Herbst]) was evaluated by spraying the test solutions into glass dishes or jars containing the adult insects; the activity against the confused flour beetle (Tribolium confusum duVal) was evaluated by introducing the insects into glass dishes which had been previously sprayed with test solution and allowed to dry. All organisms in the test were maintained in a holding room at 80° F and 50% relative humidity for an exposure period of 48 hours. At the end of this time, the dead and living insects or mites were counted, and the percent kill was calculated.
Residual Contact Activity: The residual contact activity of the compounds was determined on the same organisms using the techniques described above, except that in each case the treated surface was allowed to dry and was exposed to normal light and air for seven days before introduction of the mites or insects.

Southern armyworm [2] = experiment: Residual (7-day) contact activity, southern armyworm; type: in vivo, Spodoptera eridania [Cram.]; settings: Spodoptera eridania, 168 h, residual 7-day, AW, read-out: Percent Kill
How it was run: (§1)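 Treated surfaces were dried and weathered under normal light and air for 7 days before organisms were introduced. Southern armyworm and mites on dipped pinto bean leaves; milkweed bug and plum curculio in sprayed glass containers. Percent kill counted after 48 h exposure at 80° F, 50% RH.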

Milkweed bug [3] = experiment: Initial contact activity, spray, milkweed bug; type: in vivo, Oncopeltus fasciatus [Dallas]; settings: Oncopeltus fasciatus, 48 h, initial, MWB, 48 hours, read-out: Percent Kill
How it was run: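 Various active-ingredient concentrations, diluted with water from 1250 ppm. Contact exposure by dip, direct spray or dried residue depending on species; scored as percent kill at 48 h.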

Plum curculio = experiment: Residual (7-day) contact activity, plum curculio; type: in vivo, Conotrachelus nenuphar [Herbst]; settings: Conotrachelus nenuphar, 168 h, residual 7-day, PC, read-out: Percent Kill
How it was run: as §1

Pea aphid [4] = experiment: Initial contact activity, leaf dip, pea aphid; type: in vivo, Acyrthosiphon pisum [Harris]; settings: Acyrthosiphon pisum, foliar, 48 h, initial, PA, 48 hours, read-out: Percent Kill
Mexican bean beetle [5] = experiment: Systemic activity, soil-watering, Mexican bean beetle; type: in vivo, Epilachna varivestis Muls.; settings: Epilachna varivestis, 48 h, systemic, BB, read-out: Percent Kill
How it was run: (§2)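 Compound in acetone/water with surfactant, diluted to target concentrations; 25 ml poured onto soil of potted host plants without touching foliage. After three days for translocation, leaves infested with beetle or armyworm larvae, aphids or mites; living and dead counted two days later.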

Milkweed bug [6] = experiment: Residual (7-day) contact activity, milkweed bug; type: in vivo, Oncopeltus fasciatus [Dallas]; settings: Oncopeltus fasciatus, 168 h, residual 7-day, MWB, read-out: Percent Kill
How it was run: as §1

Pea aphid [7] = experiment: Residual (7-day) contact activity, pea aphid; type: in vivo, Acyrthosiphon pisum [Harris]; settings: Acyrthosiphon pisum, 168 h, residual 7-day, PA, read-out: Percent Kill
Two-spotted spider mite [8] = experiment: Systemic activity, soil-watering, two-spotted spider mite; type: in vivo, Tetranychus urticae Koch; settings: Tetranychus urticae, 48 h, systemic, SM, read-out: Percent Kill
How it was run: as §2

Mexican bean beetle [9] = experiment: Residual (7-day) contact activity, Mexican bean beetle; type: in vivo, Epilachna varivestis Muls.; settings: Epilachna varivestis, 168 h, residual 7-day, BB, read-out: Percent Kill
Two-spotted spider mite [10] = experiment: Residual (7-day) contact activity, two-spotted spider mite; type: in vivo, Tetranychus urticae Koch; settings: Tetranychus urticae, 168 h, residual 7-day, SM, read-out: Percent Kill
How it was run: as §1

Southern armyworm [11] = experiment: Initial contact activity, leaf dip, southern armyworm; type: in vivo, Spodoptera eridania [Cram.]; settings: Spodoptera eridania, foliar, 48 h, initial, AW, 48 hours, read-out: Percent Kill
Mexican bean beetle [12] = experiment: Initial contact activity, leaf dip, Mexican bean beetle; type: in vivo, Epilachna varivestis Muls.; settings: Epilachna varivestis, foliar, 48 h, initial, BB, 48 hours, read-out: Percent Kill
How it was run: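 Test solutions, made by diluting a 1250 ppm stock in aqueous acetone containing isooctylphenyl polyethoxyethanol, are applied by leaf dip for Mexican bean beetle larvae on pinto bean, by direct spray for adult plum curculio, and as a dried residue in dishes for confused flour beetle. Mortality is scored after 48 hours.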

Granary Weevil = experiment: Residual (7-day) contact activity, granary weevil; type: in vivo; settings: Sitophilus granarius, 168 h, residual 7-day, GW, read-out: Percent Kill

CCCCN(CCCC)SN(C)C(=O)ON=CC(C)(C)SC [Example III, 2-methyl-2-(methylthio)propanal O-[(dibutylaminosulfenyl)(methyl)carbamoyl]oxime] was tested, and the mortality at 10 ppm (Two-spotted spider mite [1]) was 98%, the mortality at 39 ppm (Two-spotted spider mite [1]) was 89% and the mortality at 156 ppm (Two-spotted spider mite [1]) was 100%. For the same molecule, the mortality at 1250 ppm (Two-spotted spider mite [1]) was 100%, the mortality at 312 ppm (Confused flour beetle) was 0% and the mortality at 1250 ppm (Confused flour beetle) was 0%. The mortality at 312 ppm (Southern armyworm [2]) was 0%, the mortality at 1250 ppm (Southern armyworm [2]) was 0% and the mortality at 10 ppm (Milkweed bug [3]) was 5%. The mortality at 39 ppm (Milkweed bug [3]) was 16%, the mortality at 156 ppm (Milkweed bug [3]) was 100% and the mortality at 1250 ppm (Milkweed bug [3]) was 100%. For the same molecule, the mortality at 156 ppm (Plum curculio) was 5%, the mortality at 312 ppm (Plum curculio) was 9.5% and the mortality at 1250 ppm (Plum curculio) was 5%. It also gave a mortality at 10 ppm (Pea aphid [4]) of 53%, a mortality at 39 ppm (Pea aphid [4]) of 19% and a mortality at 156 ppm (Pea aphid [4]) of 100%. For the same molecule, the mortality at 1250 ppm (Pea aphid [4]) was 100%, the mortality at 39 ppm (Mexican bean beetle [5]) was 20% and the mortality at 156 ppm (Mexican bean beetle [5]) was 100%. It also gave a mortality at 156 ppm (Milkweed bug [6]) of 20%, a mortality at 312 ppm (Milkweed bug [6]) of 70% and a mortality at 1250 ppm (Milkweed bug [6]) of 100%. For the same molecule, the mortality at 156 ppm (Pea aphid [7]) was 0%, the mortality at 312 ppm (Pea aphid [7]) was 0% and the mortality at 1250 ppm (Pea aphid [7]) was 0%. The mortality at 2.5 ppm (Two-spotted spider mite [8]; 2.5 PPM) was 0.9%, the mortality at 5 ppm (Two-spotted spider mite [8]) was 0% and the mortality at 10 ppm (Two-spotted spider mite [8]) was 0.7%. The mortality at 312 ppm (Mexican bean beetle [9]) was 0%, the mortality at 1250 ppm (Mexican bean beetle [9]) was 92% and the mortality at 156 ppm (Two-spotted spider mite [10]) was 18%. For the same molecule, the mortality at 312 ppm (Two-spotted spider mite [10]) was 45%, the mortality at 1250 ppm (Two-spotted spider mite [10]) was 100% and the mortality at 156 ppm (Southern armyworm [11]) was 0%. For the same molecule, the mortality at 312 ppm (Southern armyworm [11]) was 0%, the mortality at 625 ppm (Southern armyworm [11]) was 0% and the mortality at 1250 ppm (Southern armyworm [11]) was 20%. It also gave a mortality at 156 ppm (Mexican bean beetle [12]) of 40%, a mortality at 312 ppm (Mexican bean beetle [12]) of 63% and a mortality at 625 ppm (Mexican bean beetle [12]) of 95%. The mortality at 1250 ppm (Mexican bean beetle [12]) was 100%, the mortality at 312 ppm (Granary Weevil) was 0% and the mortality at 1250 ppm (Granary Weevil) was 17%.

Work on CSC(C)(C)C=NOC(=O)N(C)SN1CCOCC1 [Example II, 2-methyl-2-(methylthio)propanol O-[(N-methyl-N-morpholinosulfenyl)carbamoyl]oxime] yielded a mortality at 10 ppm (Two-spotted spider mite [1]) of 100%, a mortality at 39 ppm (Two-spotted spider mite [1]) of 100% and a mortality at 156 ppm (Two-spotted spider mite [1]) of 100%. It also gave a mortality at 1250 ppm (Two-spotted spider mite [1]) of 100%, a mortality at 312 ppm (Confused flour beetle) of 0% and a mortality at 1250 ppm (Confused flour beetle) of 2.5%. The mortality at 312 ppm (Southern armyworm [2]) was 64%, the mortality at 1250 ppm (Southern armyworm [2]) was 55% and the mortality at 10 ppm (Milkweed bug [3]) was 25%. It also gave a mortality at 39 ppm (Milkweed bug [3]) of 100%, a mortality at 156 ppm (Milkweed bug [3]) of 100% and a mortality at 1250 ppm (Milkweed bug [3]) of 100%. It also gave a mortality at 156 ppm (Plum curculio) of 10%, a mortality at 312 ppm (Plum curculio) of 5% and a mortality at 1250 ppm (Plum curculio) of 37%. The mortality at 10 ppm (Pea aphid [4]) was 78%, the mortality at 39 ppm (Pea aphid [4]) was 100% and the mortality at 156 ppm (Pea aphid [4]) was 100%. For the same molecule, the mortality at 1250 ppm (Pea aphid [4]) was 100%, the mortality at 39 ppm (Mexican bean beetle [5]) was 58% and the mortality at 156 ppm (Mexican bean beetle [5]) was 100%. For the same molecule, the mortality at 156 ppm (Milkweed bug [6]) was 100%, the mortality at 312 ppm (Milkweed bug [6]) was 100% and the mortality at 1250 ppm (Milkweed bug [6]) was 100%. It also gave a mortality at 156 ppm (Pea aphid [7]) of 0%, a mortality at 312 ppm (Pea aphid [7]) of 0% and a mortality at 1250 ppm (Pea aphid [7]) of 93%. For the same molecule, the mortality at 5 ppm (Two-spotted spider mite [8]) was 1.4%, the mortality at 10 ppm (Two-spotted spider mite [8]) was 38% and the mortality at 39 ppm (Two-spotted spider mite [8]; 39 PPM) was 69%. For the same molecule, the mortality at 312 ppm (Mexican bean beetle [9]) was 88%, the mortality at 1250 ppm (Mexican bean beetle [9]) was 100% and the mortality at 156 ppm (Two-spotted spider mite [10]) was 76%. For the same molecule, the mortality at 312 ppm (Two-spotted spider mite [10]) was 93%, the mortality at 1250 ppm (Two-spotted spider mite [10]) was 97% and the mortality at 156 ppm (Southern armyworm [11]) was 0%. The mortality at 312 ppm (Southern armyworm [11]) was 0%, the mortality at 625 ppm (Southern armyworm [11]) was 70% and the mortality at 1250 ppm (Southern armyworm [11]) was 100%. For the same molecule, the mortality at 156 ppm (Mexican bean beetle [12]) was 100%, the mortality at 312 ppm (Mexican bean beetle [12]) was 100% and the mortality at 625 ppm (Mexican bean beetle [12]) was 100%. The mortality at 1250 ppm (Mexican bean beetle [12]) was 100%, the mortality at 312 ppm (Granary Weevil) was 20% and the mortality at 1250 ppm (Granary Weevil) was 100%.
